Entries after “also recorded” stand apart in the source; their conditions may differ. Like-named read-outs stand apart in the source and are kept apart here.
Assays:
FIG. 14 [1] = test: FIG. 14
Procedure: (§1) Table printed on a drawing sheet, FIG. 14
(§2) The patent's description of the figure: FIG. 14. SRA3 pharmacokinetic data. PK studies were performed in C57BL/6 mice
First reader's note: IV route is given in the head cell of the first column; the plot legend on the same sheet prints IV 2 mg/kg in mouse.

FIG. 14 [2] = test: FIG. 14; remark: listed apart in the source
Procedure: as §1, §2
First reader's note: IP route is given in the head cell of the first column; the plot legend on the same sheet prints IP 2 mg/kg in mouse.

HCT116 cells = test: Cell viability, Alamar Blue, 24 h treatment; type: cell-based; details: relative to DMSO controls
Procedure: 5,000 HCT116 cells were seeded in 100 μL complete growth media per well in 96-well plates.

Eμ-Myc/+ lymphoma cells = test: Eμ-Myc mouse lymphoma model; type: in vivo
Procedure: Mouse studies were approved by the University of California, San Francisco Institutional Animal Care and Use Committee (IACUC). Eμ-Myc/+ mice were purchased from the Jackson Laboratory. For the Eμ-Myc tumor model, allograft mice were generated using spontaneous lymph node tumors derived from Eμ-Myc mice. 5×10^5 Eμ-Myc/+ lymphoma cells were injected via the tail vein into eight-week-old male C57BL/6J mice. Seven days after lymphoma cell injection, mice were randomized to receive vehicle (10% EtOH/Kolliphor EL in water, n=5 mice) or (S,R)-A3 (n=5 mice) by intraperitoneal injection every other day (3 times per week) until the endpoint based on the IACUC-approved protocol. Eμ-Myc mice in the (S,R)-A3 treatment arm received (S,R)-A3 at a dose of 2 mg/kg for the first 21 days and 1-2 mg/kg after treatment day 21 according to their body weights (BW): BW>26 g, 2 mg/kg; BW 25-26 g, 1.5 mg/kg; BW 24-25 g, 1 mg/kg).
We next tested the effect of (S,R)-A3 in a preclinical mouse model of B-cell lymphoma using an intermittent dosing regimen (QOD×3, every other day, 3 doses per week via intraperitoneal injection). Eμ-Myc/+ mice are a well-characterized mouse lymphoma model that overexpress MYC under the transcriptional control of the IgH enhancer element. These mice recapitulate the genetic lesion underlying Burkitt's Lymphoma. Eμ-Myc/+ lymphoma cells were injected via the tail vein into eight-week-old male C57BL/6J mice. Seven days after lymphoma cell injection, mice were randomized to receive vehicle or (S,R)-A3 by intraperitoneal injection (QOD×3, n=5 mice/treatment arm).

[3] = system: protein synthesis in HCT116 cells; test: Protein synthesis inhibition assay (transient exposure, followed by washout), O-propargyl puromycin incorporation; type: cell-based; details: 100 nM for 4 h, 24 h compound-free media
Procedure: HCT116 cells at 80% confluency in 24-well plates were incubated with compounds with at 100 nM for 4 hours at 37° C. O-propargyl-puromycin (30 uM final concentration) was then added, and the cells were incubated for 1 hour at 37° C. Media was carefully removed, cells were washed with warm PBS twice (2× short wash), followed by 5 min incubation in warm medium at 37° C. (long wash). After repeating the “short-long” washing cycle for 3 times, cells were then resuspended in warm media and incubated at 37° C. After the indicated time post-washout, media was removed, and cells were trypsinized, collected, and washed twice with ice-cold PBS before transferring to a 96-well V bottom plate. 100 uL Zombie Red (BioLegend, San Diego, Calif.) solution was added to each well and incubated for 30 min at RT in the dark. Cells were then washed with 2% FBS in PBS buffer before fixed with 200 uL of 4% PFA in PBS for 15 min on ice in dark. After washing the cells with 2% FBS in PBS buffer, 200 uL permeabilization buffer (3% FBS, 0.1% Saponin in PBS) was added to each well, and cells were incubated for 5 min at RT in the dark. Cells were then washed and resuspended in 25 uL permeabilization buffer. 100 uL click chemistry mix (50 mM HEPES pH=7.5, 150 mM NaCl, 400 uM TCEP, 250 uM TBTA, 5 uM CF405M-Azide (Biotium, Fremont, Calif.), 200 uM Cu2SO4) was added to each well, and cells were incubated at RT in dark. After the overnight incubation, cells were washed with permeabilization buffer followed by FACS buffer (2% FBS, 1% P/S, 2 mM EDTA, in PBS w/o Ca/Mg). Cells were then resuspended in 200 uL FACS buffer and filtered before FACS analysis (FACSCanto II, Becton Dickinson, Franklin Lakes, N.J.). Only single, live cells were analyzed (FlowJo), as judged by forward/side scattering and the absence of Zombie Red staining. Protein synthesis inhibition curves were generated by first normalizing intensity to the cycloheximide-treated (50 μg/mL for 1 h, maximum inhibition) and DMSO-treated control samples. Normalized intensity was plotted in GraphPad Prism.

[4] = system: HCT116, H929, and MM1S cells; test: Proliferation assay (transient exposure, followed by washout), CellTiter Glo; type: cell-based; details: for antiproliferative activity after transient exposure and washout: 1 h or 4 h exposure, stringent washout, 72 h compound-free media, HCT116, H929, MM1S
Procedure: 0.6×10^6 cells were seeded in 3 mL complete growth media per well in 6-well plates. […] For adherent cells, growth media was carefully removed, cells were washed with warm PBS twice (2×short wash), and followed by 5 min incubation in warm media at 37° C. (long wash). After repeating the “short-long” washing cycle 3 times, cells were resuspended in warm media and plated in flat-bottom 96-well plates (100 uL/well) at equal cell number. For suspension cells, cells were collected and spun down at 300×g for 3 min. Supernatant was carefully removed, cells were then washed with warm PBS twice (2× short wash), followed by 5 min incubation in warm media at 37° C. (long wash). After repeating the “short-long” washing cycle 3 times, cells were resuspended in warm media and plated in flat-bottom 96-well plates (100 uL/well) at equal cell number. After the indicated times post-washout, CellTiter Glo (Promega, Madison, Wis.) was used to asses the cell viability per the manufacturer's instructions. Briefly, after adding 100 uL CellTiter Glo reagent to each well, the plate was rocked at room temperature for 5-10 min, and luminescence intensity was measured. Proliferation curves were generated by first normalizing luminescence intensity in each well to the average T=0 value for each compound. Normalized luminescence intensity was plotted in GraphPad Prism (triplicate values, mean±SD).

[5] = system: HCT116, H929, and MM1S cells; test: Proliferation assay (continuous exposure), 72 h, Alamar Blue; type: cell-based; details: 72 h continuous
Procedure: To assess in vitro anticancer activity, HCT116, H929, and MM1S cells were treated continuously for 72 hours with increasing concentrations of (S,S)-A3, (S,R)-A3, or dA3 (cyclic peptide 4 (Carelli, Taunton, et al., eLife, 2015), here termed “dA3” (deoxy-A3)). Cell viability was then assessed using the Alamar Blue assay.

[6] = target: eEF1A (Elongation Factor 1-alpha), wild type (UniProt P68104); test: cell-based or functional assay
Chain of eEF1A (Elongation Factor 1-alpha), wild type (P68104 2-462): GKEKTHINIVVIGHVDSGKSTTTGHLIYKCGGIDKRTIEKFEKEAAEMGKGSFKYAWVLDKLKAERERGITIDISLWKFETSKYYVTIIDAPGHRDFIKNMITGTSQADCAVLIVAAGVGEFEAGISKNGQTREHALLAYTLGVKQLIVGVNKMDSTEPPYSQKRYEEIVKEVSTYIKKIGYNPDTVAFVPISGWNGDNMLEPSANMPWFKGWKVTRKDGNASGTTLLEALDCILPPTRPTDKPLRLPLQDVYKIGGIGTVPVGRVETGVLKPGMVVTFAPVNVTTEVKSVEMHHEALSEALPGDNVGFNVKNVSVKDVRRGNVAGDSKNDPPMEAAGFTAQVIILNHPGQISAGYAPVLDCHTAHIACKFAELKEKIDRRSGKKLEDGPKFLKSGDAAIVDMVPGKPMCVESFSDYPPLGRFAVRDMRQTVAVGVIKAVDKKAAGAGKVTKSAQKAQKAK

[7] = system: protein synthesis in HCT116 cells; test: Protein synthesis inhibition assay (continuous exposure), O-propargyl puromycin incorporation; type: cell-based; details: 24 h treatment, 1 h OPP pulse, read-out: IC50, rate of protein synthesis
Procedure: HCT116 cells at 80% confluency in 12-well plates were incubated with compounds with varying concentrations for 10 min or 24 hours at 37° C. After the indicated time, O-propargyl-puromycin (30 μM final concentration) was added, and the cells were incubated for 1 hour at 37° C. Subsequently, media was removed, and cells were trypsinized, collected, and washed twice with ice-cold PBS before transferring to a 96-well V bottom plate. 100 uL Zombie Red (BioLegend, San Diego, Calif.) solution was added to each well and incubated for 30 min at RT in dark. Cells were then washed with 2% FBS in PBS buffer before fixed with 200 uL of 4% PFA in PBS for 15 min on ice in dark. After washing the cells with 2% FBS in PBS buffer, 200 uL permeabilization buffer (3% FBS, 0.1% saponin in PBS) was added to each well, and the cells were incubated for 5 min at RT in the dark. Cells were then washed and resuspended in 25 uL permeabilization buffer. 100 uL click chemistry mix (50 mM HEPES pH=7.5, 150 mM NaCl, 400 uM TCEP, 250 uM TBTA, 5 uM CF405M-Azide (Biotium, Fremont, Calif.), 200 uM Cu2SO4) was added to each well, and cells were incubated at RT in the dark. […] Only single, live cells were analyzed (FlowJo), as judged by forward/side scattering and the absence of Zombie Red staining. […]

[8] = system: eEF1A-mutant (A399V) HCT116 cells; details: read-out: IC50, cell proliferation in eEF1A-mutant (A399V) cells; 72 h; AlamarBlue
Procedure: Cell proliferation (% DMSO control) was quantified using AlamarBlue. […] Data points (% DMSO control) are mean values±SD (n=3).
Adherent cells were briefly trypsinized and repeatedly pipetted to produce a homogeneous cell suspension. 2,500 cells were seeded in 100 uL complete growth media per well in 96-well clear-bottom plates. Suspension cells were repeatedly pipetted to produce a homogeneous cell suspension. 10,000 cells were seeded in 100 uL complete growth media per well in 96-well clear-bottom plates. After allowing cells to grow/adhere overnight, cells were treated with 25 uL/well 5×drug stocks (0.1% DMSO final) and incubated for 72 hr. AlamarBlue (Life Technologies, Grand Island, N.Y.) was used to assess cell viability per the manufacturer's instructions. Briefly, 12.5 uL alamarBlue reagent was added to each well, and plates were incubated at 37° C. Fluorescence intensity was measured every 30 min to determine the linear range for each assay (Ex 545 nm, Em 590 nm, SPARK, Tecan Austria GmbH, Austria). Proliferation curves were generated by first normalizing fluorescence intensity in each well to the DMSO-treated plate average. Normalized fluorescence intensities were plotted in GraphPad Prism (GraphPad, La Jolla, Calif.), and IC50 values calculated from nonlinear regression curves. The reported IC50 values represent the average of at least three independent determinations (±SD).

[9] = C57BL/6, mouse, in vivo, iv, 2 mg/kg
[10] = C57BL/6, mouse, in vivo, ip, 2 mg/kg

For `C=C[C@H](C)C[C@@H]1NC(=O)[C@H]([C@H](O)C(C)C)N(C)C(=O)[C@H](C)N(C)C(=O)[C@@H]([C@@H](C)CC)NC(=O)[C@@H]([C@H](O)C(C)C)NC(=O)[C@H]2CCCCN2C(=O)[C@H](C)N(C)C1=O` [SRA3], the “AUCInf” value (FIG. 14 [1]) was 395 ng·h/mL, the “AUClast” value (FIG. 14 [1]) was 367 ng·h/mL and the “CL” value (FIG. 14 [1]) was 87.2 mL/min/kg. The “Vss” value (FIG. 14 [1]) was 42.0 L/kg, the “Vz” value (FIG. 14 [1]) was 52.7 L/kg and the C0 (FIG. 14 [1]; [9]) was 204 ng/mL. The MRT (FIG. 14 [1]; [9]) was 7.97 h, the half-life (FIG. 14 [1]; [9]) was 6.79 h and the “AUCInf” value (FIG. 14 [2]) was 384 ng·h/mL. For the same compound, the “AUCInf/D” value (FIG. 14 [2]) was 192 kg·ng·h/mL/mg, the “AUClast” value (FIG. 14 [2]) was 347 ng·h/mL and the “F (%)” value (FIG. 14 [2]) was 97.2%. The “tmax” value (FIG. 14 [2]) was 0.583 h, the Cmax (FIG. 14 [2]; [10]) was 86.6 ng/mL and the MRT (FIG. 14 [2]; [10]) was 8.63 h. The half-life (FIG. 14 [2]; [10]) was 8.21 h.
`C=C[C@H](C)C[C@@H]1NC(=O)[C@H]([C@H](O)C(C)C)N(C)C(=O)[C@H](C)N(C)C(=O)[C@@H]([C@H](C)CC)NC(=O)[C@@H]([C@H](O)C(C)C)NC(=O)[C@H]2CCCCN2C(=O)[C@H](C)N(C)C1=O` [WHY3179] gave an IC50 (HCT116 cells) of 6.3 nM.
In the case of `C=C[C@H](C)C[C@@H]1NC(=O)[C@H]([C@H](O)C(C)C)N(C)C(=O)[C@H](C)N(C)C(=O)[C@@H]([C@@H](C)CC)NC(=O)[C@@H]([C@H](O)C(C)C)NC(=O)[C@H]2CCCCN2C(=O)[C@H](C)N(C)C1=O` [(S,R)-A3], the “maximum BW loss” value (Eμ-Myc/+ lymphoma cells; 2 mg/kg (1-2 mg/kg after day 21) intraperitoneal, QOD×3) is reported as < 8%, the survival (Eμ-Myc/+ lymphoma cells; 2 mg/kg (1-2 mg/kg after day 21) intraperitoneal, QOD×3, P=0.0027) is reported as “significantly improved survival” and the tumor growth (Eμ-Myc/+ lymphoma cells; 2 mg/kg (1-2 mg/kg after day 21) intraperitoneal, QOD×3, start 7 days after cell injection) is reported as “reduced tumor growth”. The “efficacy in mouse lymphoma model” value (Eμ-Myc/+ lymphoma cells; Eμ-Myc mouse model of B-cell lymphoma) was “efficacious”, the “recovery of protein synthesis after washout” value (shortened to “recovery of protein synthesis”) [3] was “sustained, washout-resistant manner” and the “antiproliferative activity after transient exposure and washout” value [4] was “profound and sustained loss of cell viability; also recorded: strong antiproliferative activity”. For the same compound, the “reduction of cell viability, continuous treatment” value [5] was “low nanomolar concentrations”.
`C=C[C@H](C)C[C@@H]1NC(=O)[C@H]([C@H](O)C(C)C)N(C)C(=O)[C@H](C)N(C)C(=O)[C@@H]([C@@H](C)CC)NC(=O)[C@@H]([C@H](O)C2CC2)NC(=O)[C@H]2CCCCN2C(=O)[C@H](C)N(C)C1=O` [WHY4014] showed an IC50 (HCT116 cells) of 14.8 nM.
With `C=C[C@H](C)C[C@@H]1NC(=O)[C@H]([C@@H](O)C(C)C)N(C)C(=O)[C@H](C)N(C)C(=O)[C@@H]([C@@H](C)CC)NC(=O)[C@@H]([C@H](O)C(C)C)NC(=O)[C@H]2CCCCN2C(=O)[C@H](C)N(C)C1=O` [(S,S)-A3] the “recovery of protein synthesis” value [3] was “partially recovered”, the “antiproliferative activity after transient exposure and washout” value [4] was “less efficacious” and the “reduction of cell viability, continuous treatment” value [5] was “low nanomolar concentrations”.
ternatin-4 (peptide) showed a cell proliferation rate after transient exposure (100 nM, 4 h) and washout, HCT116 cells, % of DMSO control (% of DMSO control) [6] of 50, a protein synthesis rate 24 h after washout (100 nM for 4 h), HCT116 cells, % of DMSO control (% of DMSO control) [6] of 30 and a rate of protein synthesis (OPP incorporation), HCT116 cells, 10 min treatment; potency relative to SR-A3 [6] of 10 fold.
For `C=C[C@H](C)C[C@@H]1NC(=O)[C@H]([C@H](O)C(C)C)N(C)C(=O)[C@H](C)N(C)C(=O)[C@@H]([C@@H](C)CC)NC(=O)[C@@H]([C@H](O)C(C)C)NC(=O)[C@H]2CCCCN2C(=O)[C@H](C)N(C)C1=O` [SR-A3], the IC50 [7] was ~20 nM, the “recovery of protein synthesis” value [3] was “sustained inhibition” and the “cell proliferation after washout” value ([4]; HCT116, 100 nM for 4 h, rigorous washout, 72-h washout period) was “nearly abolished”. For the same compound, the IC50 [8] was > 1000 nM.

From US20230135758A1, “[…] 1-ALPHA INHIBITORS AND USES THEREOF” (The Regents of the University of California, priority 2020, published 2023)
